These results are taken from patent US20230286970A1, “NOVEL OXADIAZOLE-BASED SELECTIVE HDAC6 INHIBITORS” (ITALFARMACO S.P.A., priority 2020, published 2023).

Bounds are passed on as bounds.

One assay addresses recombinant human HDAC6 (Homo sapiens (Human), UniProt Q9UBN7). The experiment in a line: Enzymatic screening, HDAC6 inhibition (fluorogenic FdL_G substrate). It counts as biochemical. In a few lines:
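Enzyme was preincubated with compound (8 doses, triplicate, 1% DMSO) in 25 mM Tris-HCl pH 8, 130 mM NaCl, 0.05% Tween-20, 10% glycerol, with BSA. A FLUOR DE LYS-Green substrate was then added, and fluorescence was read after developer plus 2 μM TSA.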

The next assay has as its target recombinant human HDAC1 (Homo sapiens (Human), UniProt Q13547). As to the kind of experiment: Enzymatic screening, HDAC1 inhibition (fluorogenic FdL_G substrate). The format is biochemical. In a few lines:
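Recombinant human HDAC1 inhibition was measured fluorometrically using the FLUOR DE LYS-Green (FdL_G) substrate. Compounds at 8 doses (1% DMSO final) in Tris-HCl pH 8 buffer with NaCl, Tween-20 and glycerol were preincubated in triplicate with enzyme and 1 mg/mL BSA, then given substrate. Developer I plus 2 μM TSA was added, and fluorescence read after 25 minutes in the dark.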

Sequence of recombinant human HDAC1 (Q13547 whole entry): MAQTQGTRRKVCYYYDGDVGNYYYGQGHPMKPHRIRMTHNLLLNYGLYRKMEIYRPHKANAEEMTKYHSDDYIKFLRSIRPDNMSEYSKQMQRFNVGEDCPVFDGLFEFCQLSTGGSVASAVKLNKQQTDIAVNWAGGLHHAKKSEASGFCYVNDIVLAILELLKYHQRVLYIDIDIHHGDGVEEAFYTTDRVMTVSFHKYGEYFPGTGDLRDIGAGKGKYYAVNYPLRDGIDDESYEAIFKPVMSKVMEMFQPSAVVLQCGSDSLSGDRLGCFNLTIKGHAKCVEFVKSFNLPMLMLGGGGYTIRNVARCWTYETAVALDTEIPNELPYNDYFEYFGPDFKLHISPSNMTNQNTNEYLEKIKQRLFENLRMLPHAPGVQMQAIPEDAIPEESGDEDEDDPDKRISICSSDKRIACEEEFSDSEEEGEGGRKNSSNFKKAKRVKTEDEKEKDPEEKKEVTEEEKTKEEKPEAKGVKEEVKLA
Sequence of recombinant human HDAC6 (Q9UBN7 whole entry): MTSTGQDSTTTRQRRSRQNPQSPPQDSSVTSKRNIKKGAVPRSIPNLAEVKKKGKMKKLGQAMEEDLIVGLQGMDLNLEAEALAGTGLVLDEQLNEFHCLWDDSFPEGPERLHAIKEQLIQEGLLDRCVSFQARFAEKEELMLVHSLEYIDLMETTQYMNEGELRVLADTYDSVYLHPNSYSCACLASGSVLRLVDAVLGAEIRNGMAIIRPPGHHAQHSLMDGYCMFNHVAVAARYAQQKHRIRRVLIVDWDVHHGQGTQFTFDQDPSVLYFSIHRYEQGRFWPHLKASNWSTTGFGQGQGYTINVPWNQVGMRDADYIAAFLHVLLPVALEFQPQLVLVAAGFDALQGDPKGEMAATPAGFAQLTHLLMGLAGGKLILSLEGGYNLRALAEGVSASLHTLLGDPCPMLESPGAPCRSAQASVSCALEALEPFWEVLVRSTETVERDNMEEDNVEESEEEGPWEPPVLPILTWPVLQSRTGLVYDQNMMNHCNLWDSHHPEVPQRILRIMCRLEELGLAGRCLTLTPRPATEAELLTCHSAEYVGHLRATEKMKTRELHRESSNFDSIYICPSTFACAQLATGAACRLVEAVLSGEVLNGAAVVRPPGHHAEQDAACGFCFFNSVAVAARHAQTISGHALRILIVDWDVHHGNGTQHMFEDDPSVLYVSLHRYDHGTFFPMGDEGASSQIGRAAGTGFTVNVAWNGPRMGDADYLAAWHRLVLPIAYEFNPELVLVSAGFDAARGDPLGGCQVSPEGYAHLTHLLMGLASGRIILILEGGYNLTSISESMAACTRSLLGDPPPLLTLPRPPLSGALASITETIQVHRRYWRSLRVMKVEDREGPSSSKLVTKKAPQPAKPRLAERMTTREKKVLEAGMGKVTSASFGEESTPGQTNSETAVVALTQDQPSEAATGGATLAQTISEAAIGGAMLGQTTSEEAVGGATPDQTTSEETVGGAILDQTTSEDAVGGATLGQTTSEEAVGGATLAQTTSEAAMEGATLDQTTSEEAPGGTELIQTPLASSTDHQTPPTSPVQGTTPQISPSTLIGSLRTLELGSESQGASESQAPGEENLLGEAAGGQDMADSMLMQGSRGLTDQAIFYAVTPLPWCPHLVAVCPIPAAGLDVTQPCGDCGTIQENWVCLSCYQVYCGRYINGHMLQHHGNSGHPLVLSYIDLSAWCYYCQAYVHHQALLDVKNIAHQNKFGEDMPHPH

Usually IC50 stands for the concentration at which inhibition is half-maximal. With `CNc1ccc2cc(-c3nnn(Cc4ccc(-c5nnc(C(F)F)o5)c(F)c4F)n3)ccc2n1` [compound 407, 6-(2-(4-(5-(difluoromethyl)-1,3,4-oxadiazol-2-yl)-2,3-difluorobenzyl)-2H-tetrazol-5-yl)-N-methylquinolin-2-amine], the IC50 on recombinant human HDAC6 was 136 nM; on recombinant human HDAC1, 1e+06 nM.

In the case of `Nc1ncnc2cc(-c3cn(Cc4ccc(-c5nnc(C(F)F)o5)cc4F)nn3)ccc12` [compound 387, 7-[1-({4-[5-(difluoromethyl)-1,3,4-oxadiazol-2-yl]-2-fluorophenyl}methyl)-1H-1,2,3-triazol-4-yl]quinazolin-4-amine], the IC50 at recombinant human HDAC6 came out at 12 nM; on recombinant human HDAC1 it was 1e+06 nM.

Turning to `O=C(Nc1cc(-c2nnn(Cc3c(F)cc(-c4nnc(C(F)F)o4)cc3F)n2)ccc1O)N1CCOCC1` [compound 95, N-(5-(2-(4-(5-(difluoromethyl)-1,3,4-oxadiazol-2-yl)-2,6-difluorobenzyl)-2H-tetrazol-5-yl)-2-hydroxyphenyl)morpholine-4-carboxamide], the IC50 at recombinant human HDAC6 was 37 nM; at recombinant human HDAC1, over 200000 nM.

Turning to `Cn1c(N)nc2cc(-c3nnn(Cc4ccc(-c5nnc(C(F)F)o5)c(F)c4)n3)ccc21` [compound 373, 5-[2-[[4-[5-(difluoromethyl)-1,3,4-oxadiazol-2-yl]-3-fluorophenyl]methyl]tetrazol-5-yl]-1-methylbenzimidazol-2-amine], the IC50 on recombinant human HDAC6 is 26 nM; at recombinant human HDAC1, over 1e+06 nM.

For the molecule `Nc1ncnc2cc(-c3cn(Cc4ccc(-c5nnc(C(F)F)o5)cn4)nn3)ccc12` [compound 317, 7-[1-[[5-[5-(difluoromethyl)-1,3,4-oxadiazol-2-yl]pyridin-2-yl]methyl]triazol-4-yl]quinazolin-4-amine], the IC50 on recombinant human HDAC6 is 34 nM; on recombinant human HDAC1, over 1e+06 nM.

For the molecule `Nc1ccc(-c2cn(Cc3ncc(-c4nnc(C(F)F)o4)cc3F)nn2)cn1` [compound 304, 5-[1-[[5-[5-(difluoromethyl)-1,3,4-oxadiazol-2-yl]-3-fluoropyridin-2-yl]methyl]triazol-4-yl]pyridin-2-amine], the IC50 on recombinant human HDAC6 is 35 nM; on recombinant human HDAC1 it was over 1e+06 nM.

For `CC(C)(C)OC(=O)N1CCC2(CC1)Nc1ccc(-c3cn(Cc4ccc(-c5nnc(C(F)F)o5)cc4)nn3)cc1NC2=O` [compound 279, tert-butyl 6′-(1-(4-(5-(difluoromethyl)-1,3,4-oxadiazol-2-yl)benzyl)-1H-1,2,3-triazol-4-yl)-3′-oxo-3′,4′-dihydro-1′H-spiro[piperidine-4,2′-quinoxaline]-1-carboxylate], the values for the IC50 at recombinant human HDAC6 and on recombinant human HDAC1 were 286 nM and over 200000 nM, respectively.

As for `Cn1c(N)nc2ccc(-c3cn(Cc4ccc(-c5nnc(C(F)F)o5)cc4)nn3)cc21` [compound 166, 6-(1-(4-(5-(difluoromethyl)-1,3,4-oxadiazol-2-yl)benzyl)-1H-1,2,3-triazol-4-yl)-1-methyl-1H-benzo[d]imidazol-2-amine], the IC50 at recombinant human HDAC6 was 78 nM; on recombinant human HDAC1 it was over 200000 nM.

Regarding `Cn1c(N)nc2cc(-c3nnn(Cc4cc(F)c(-c5nnc(C(F)F)o5)cc4F)n3)ccc21` [compound 372, 5-[2-[[4-[5-(difluoromethyl)-1,3,4-oxadiazol-2-yl]-2,5-difluorophenyl]methyl]tetrazol-5-yl]-1-methylbenzimidazol-2-amine], the figures for the IC50 on recombinant human HDAC6 and at recombinant human HDAC1 were 19 nM and over 1e+06 nM, respectively.

Consider `Cn1c(N)nc2cc(-c3cnn(Cc4ccc(-c5nnc(C(F)F)o5)cc4)c3)ccc21` [compound 321, 5-[1-[[4-[5-(difluoromethyl)-1,3,4-oxadiazol-2-yl]phenyl]methyl]pyrazol-4-yl]-1-methylbenzimidazol-2-amine], for which the figures for the IC50 at recombinant human HDAC6 and at recombinant human HDAC1 were 98 nM and over 1e+06 nM, respectively.

As for `Nc1ccc(-c2nnn(Cc3ncc(-c4nnc(C(F)F)o4)cn3)n2)cn1` [compound 77, 5-(2-((5-(5-(difluoromethyl)-1,3,4-oxadiazol-2-yl)pyrimidin-2-yl)methyl)-2H-tetrazol-5-yl)pyridin-2-amine], the IC50 at recombinant human HDAC6 was 35 nM; at recombinant human HDAC1, over 200000 nM.

Take `O=C(Nc1cccc(-c2nnn(Cc3c(F)cc(-c4nnc(C(F)F)o4)cc3F)n2)c1)N1CCOCC1` [compound 98, N-(3-(2-(4-(5-(difluoromethyl)-1,3,4-oxadiazol-2-yl)-2,6-difluorobenzyl)-2H-tetrazol-5-yl)phenyl)morpholine-4-carboxamide]: the IC50 on recombinant human HDAC6 was 38 nM; at recombinant human HDAC1, over 200000 nM.

For `Fc1cc(Cn2cnc(-c3ccc(NC4=NCCN4)cc3)c2)ccc1-c1nnc(C(F)F)o1` [compound 360, N-[4-[1-[[4-[5-(difluoromethyl)-1,3,4-oxadiazol-2-yl]-3-fluorophenyl]methyl]imidazol-4-yl]phenyl]-4,5-dihydro-1H-imidazol-2-amine], the figures for the IC50 on recombinant human HDAC6 and on recombinant human HDAC1 were 18 nM and over 1e+06 nM, respectively.

On to `Cn1c(N)nc2cc(-c3cn(Cc4cc(F)c(-c5nnc(C(F)F)o5)cc4F)nn3)ccc21` [compound 350, 5-[1-[[4-[5-(difluoromethyl)-1,3,4-oxadiazol-2-yl]-2,5-difluorophenyl]methyl]triazol-4-yl]-1-methylbenzimidazol-2-amine], for which the values for the IC50 on recombinant human HDAC6 and at recombinant human HDAC1 were 22 nM and over 1e+06 nM, respectively.

Consider `CC(=O)Nc1cccc(-c2cn(Cc3ccc(-c4nnc(C(F)F)o4)cc3)nn2)c1` [compound 139, N-(3-(1-(4-(5-(difluoromethyl)-1,3,4-oxadiazol-2-yl)benzyl)-1H-1,2,3-triazol-4-yl)phenyl)acetamide], for which the IC50 on recombinant human HDAC6 is 55 nM; on recombinant human HDAC1, over 200000 nM.

Consider `CCNc1ncc2cc(-c3cn(Cc4ccc(-c5nnc(C(F)F)o5)c(F)c4)nn3)ccc2n1` [compound 395, 6-(1-(4-(5-(difluoromethyl)-1,3,4-oxadiazol-2-yl)-3-fluorobenzyl)-1H-1,2,3-triazol-4-yl)-N-ethylquinazolin-2-amine], for which the IC50 turned out to be 857 nM on recombinant human HDAC6 and 1e+06 nM on recombinant human HDAC1.

Turning to `FC(F)c1nnc(-c2ccc(Cn3cc(-c4ccccc4)nn3)cc2)o1` [compd. 234, 2-(difluoromethyl)-5-(4-((4-phenyl-1H-1,2,3-triazol-1-yl)methyl)phenyl)-1,3,4-oxadiazole], the values for the IC50 at recombinant human HDAC6 and on recombinant human HDAC1 were 202 nM and over 200000 nM, respectively.

With `O=C1Nc2cc(-c3cn(Cc4ccc(-c5nnc(C(F)F)o5)cn4)nn3)ccc2C12CCCC2` [compound 123, 6′-(1-((5-(5-(difluoromethyl)-1,3,4-oxadiazol-2-yl)pyridin-2-yl)methyl)-1H-1,2,3-triazol-4-yl)spiro[cyclopentane-1,3′-indolin]-2′-one], the IC50 is 46 nM at recombinant human HDAC6 and over 200000 nM on recombinant human HDAC1.

`NC(=O)c1cccc(-c2cnn(Cc3ccc(-c4nnc(C(F)F)o4)cc3)c2)c1` [compound 333, 3-[1-[[4-[5-(difluoromethyl)-1,3,4-oxadiazol-2-yl]phenyl]methyl]pyrazol-4-yl]benzamide]: the values for the IC50 on recombinant human HDAC6 and at recombinant human HDAC1 were 321 nM and over 1e+06 nM, respectively.

Regarding `Fc1cc(-c2nnc(C(F)F)o2)ccc1Cn1cnc(-c2ccc(NC3=NCCN3)cc2)c1` [compound 357, N-[4-[1-[[4-[5-(difluoromethyl)-1,3,4-oxadiazol-2-yl]-2-fluorophenyl]methyl]imidazol-4-yl]phenyl]-4,5-dihydro-1H-imidazol-2-amine], the IC50 is 12 nM on recombinant human HDAC6 and over 1e+06 nM at recombinant human HDAC1.

Take `Nc1ccc(-c2nnn(Cc3c(F)cc(-c4nnc(C(F)F)o4)cc3F)n2)cn1` [compound 45, 5-(2-(4-(5-(difluoromethyl)-1,3,4-oxadiazol-2-yl)-2,6-difluorobenzyl)-2H-tetrazol-5-yl)pyridin-2-amine]: the figures for the concentration for half-maximal inhibition (IC50) at recombinant human HDAC6 and at recombinant human HDAC1 were 20 nM and over 200000 nM, respectively.

Consider `Nc1ccc(-c2cn(C(CN3CCCC3)c3ccc(-c4nnc(C(F)F)o4)cn3)nn2)cn1` (stereo not drawn) [Compd. 301, 5-(1-(1-(5-(5-(difluoromethyl)-1,3,4-oxadiazol-2-yl)pyridin-2-yl)-2-(pyrrolidin-1-yl)ethyl)-1H-1,2,3-triazol-4-yl)pyridin-2-amine], for which the IC50 on recombinant human HDAC6 is 64 nM; at recombinant human HDAC1, over 200000 nM.

In the case of `O=C(Nc1cccc(-c2cn(Cc3ccc(-c4nnc(C(F)F)o4)cc3Cl)nn2)c1)N1CCOCC1` [compound 337, N-[3-[1-[[2-chloro-4-[5-(difluoromethyl)-1,3,4-oxadiazol-2-yl]phenyl]methyl]triazol-4-yl]phenyl]morpholine-4-carboxamide], the IC50 is 45 nM on recombinant human HDAC6 and over 1e+06 nM at recombinant human HDAC1.

Consider `COc1ccccc1-c1cn(Cc2ccc(-c3nnc(C(F)F)o3)cc2)nn1` [compound 233, 2-(difluoromethyl)-5-(4-((4-(2-methoxyphenyl)-1H-1,2,3-triazol-1-yl)methyl)phenyl)-1,3,4-oxadiazole], for which the IC50 was 200 nM at recombinant human HDAC6 and over 200000 nM on recombinant human HDAC1.

As for `Nc1ccc(-c2noc(Cc3ccc(-c4nnc(C(F)F)o4)cc3)n2)cn1` [compound 135, 5-(5-(4-(5-(difluoromethyl)-1,3,4-oxadiazol-2-yl)benzyl)-1,2,4-oxadiazol-3-yl)pyridin-2-amine], the IC50 at recombinant human HDAC6 was 53 nM; at recombinant human HDAC1, over 200000 nM.

As to `Nc1ccc(-c2cn(Cc3ccc(-c4nnc(C(F)F)o4)cc3F)nn2)cn1` [compound 48, 5-(1-(4-(5-(difluoromethyl)-1,3,4-oxadiazol-2-yl)-2-fluorobenzyl)-1H-1,2,3-triazol-4-yl)pyridin-2-amine], the IC50 was 21 nM at recombinant human HDAC6 and over 30000 nM on recombinant human HDAC1.

Take `Nc1ccc(-c2cn(Cc3ccc(-c4nnc(C(F)F)o4)cc3Cl)nn2)cn1` [compound 134, 5-(1-(2-chloro-4-(5-(difluoromethyl)-1,3,4-oxadiazol-2-yl)benzyl)-1H-1,2,3-triazol-4-yl)pyridin-2-amine]: the IC50 was 52 nM on recombinant human HDAC6 and over 200000 nM on recombinant human HDAC1.
